Experimental findings from patent US20250195553A1, “Use of Genipin-1-B-D-Gentiobioside in Preparation of Drug” (Guizhou Bailing Group Pharmaceutical Co., Ltd., priority 2023, published 2025) are described below.

Values joined by “and” are separate entries in the source; they are usually repeats but may differ in a detail not shown here. Equal entries are not always repeated. Where two headings read alike, the source gives them in different places.

For test [1], the system named is Human Respiratory Syncytial Virus (RSV). The test can be described thus: RSV viral load in mouse lung tissue (RT-PCR), nebulization. The test is classed as in vivo. On the procedure: […] Each group consisted of 10 mice, with an equal number of males and females. Except for the normal control group, all mice were lightly anesthetized with isoflurane and infected with respiratory syncytial virus (RSV) via intranasal administration, with each mouse receiving 35 μl of the virus. On the day of infection, the treatment groups began inhalation administration. Each group received nebulization for 25 minutes once daily for four consecutive days. The normal control group and the model control group received nebulized saline under the same conditions. On the fifth day, after weighing, the mice were sacrificed by cervical dislocation, and their lung tissues were dissected, weighed, and used to calculate the lung index and lung index inhibition rate. The lung tissues were also retained for virus load, pathological examination, and inflammatory factor detection. The results were statistically analyzed using the t-test for intergroup comparisons.
After dissecting the mice, the lung tissues were collected and stored in separate containers at −80° C. in a low-temperature freezer. The lung tissues were then removed from the −80° C. freezer and placed in a clean mortar. A small amount of liquid nitrogen was poured into the mortar, and the tissues were ground into powder using a pestle. The powder was collected in a 1.5 ml centrifuge tube, and 1 ml of TRIzol Reagent was immediately added. The tube was gently tapped at the bottom to mix the sample and ensure it was resuspended as soon as possible. The centrifuge tube was then placed horizontally at room temperature and incubated for 20 minutes. Next, it was centrifuged at 4° C. and 12,000 rpm for 10 minutes. The clear supernatant was transferred to a new 1.5 ml centrifuge tube, and 0.2 ml of chloroform was added. The tube was tightly capped, vigorously shaken for 15 seconds, and then incubated at room temperature for 2-3 minutes until the liquid separated into layers. After centrifuging at 4° C. and 12,000 rpm for 15 minutes, the transparent supernatant was carefully transferred to a new 1.5 ml centrifuge tube. Then, 0.5 ml of isopropanol was added, mixed well, and incubated at room temperature for 30 minutes. Following centrifugation at 4° C. and 12,000 rpm for 10 minutes, the supernatant was discarded. The precipitate was gently washed with 1 ml of 75% ethanol (to allow the white precipitate to float slightly), and then centrifuged at 4° C. and 7,500 rpm for 5 minutes. The supernatant was completely aspirated, and the RNA precipitate was briefly dried for 5-10 minutes. The precipitate was then dissolved in 20 μl of DEPC (Diethylpyrocarbonate)-treated water and stored in a −80° C. low-temperature freezer.
Treatment of Control Nucleic Acid: DEPC-H2O was used as a negative control. For the positive control, a series of four concentrations were prepared by gradient dilution at 10^7, 10^6, 10^5, and 10^4 copies/ml.
Reagent Preparation: Mix n×18 μl of RSV nucleic acid fluorescent PCR detection mixture, n×1 μl of internal control, and n×1 μl of RT-PCR enzyme (where n is the number of reaction tubes). Shake vigorously for a few seconds and centrifuge at 3000 rpm for a few seconds.
Sample Addition: Dispense 20 μl of the above mixture into each PCR tube. Then, add 5 μl of sample nucleic acid extract, DEPC-H2O, and positive control to the respective PCR tubes. Tightly close the tube caps, centrifuge for a few seconds to ensure all liquids are at the bottom, and immediately proceed with PCR amplification.
PCR Amplification: Place the reaction tubes in a quantitative fluorescent PCR instrument. Set the cycling parameters as follows: 45° C. for 10 minutes; 95° C. for 15 minutes; then 40 cycles of 95° C. for 15 seconds→60° C. for 60 seconds. Single-point fluorescent detection is performed at 60° C., with a reaction volume of 25 μl.
Fluorescent Channel Selection: Select the FAM and HEX/VIC/JOE channels for detection. […]

The test system of test [2] is Human Coronavirus OC43 (HCoV-OC43). The class given is in vivo. To be noted: OC43.
The mark [3] stands for this setting: 37.5 mg/ml nebulization 25 min once daily 4 days.
Where [4] appears, read: 75 mg/ml nebulization 25 min once daily 4 days.

As for `COC(=O)C1=CO[C@@H](O[C@@H]2O[C@H](CO[C@@H]3O[C@H](CO)[C@@H](O)[C@H](O)[C@H]3O)[C@@H](O)[C@H](O)[C@H]2O)[C@@H]2C(CO)=CC[C@H]12` [Genipin-1-β-D-gentiobioside], the “Inhibition Rate (viral load)” value was 57.54% and 57.43% in test [1] (setting [3]); 56.08% in test [1] (setting [4]). In addition, the “Viral Load in lung tissue” value was found to be 22127.79 ± 30384.54 copies/ng in test [1] (setting [3]) and 22745.57 ± 13287.06 copies/ng in test [1] (setting [4]). Further, the figures for the “Inhibition Rate (lung index)” value in test [2] (37.5 mg/kg/d i.v. 4 days), in test [2] (75 mg/kg/d i.v. 4 days) and in test [2] (150 mg/kg/d i.v. 4 days) were 41.59%, 42.34% and 39.93%, respectively. Moreover, the “Lung Index” value is 0.80 ± 0.08 g lung weight × 100 g/body weight in test [2] (37.5 mg/kg/d i.v. 4 days), 0.80 ± 0.05 g lung weight × 100 g/body weight in test [2] (75 mg/kg/d i.v. 4 days) and 0.80 ± 0.07 g lung weight × 100 g/body weight in test [2] (150 mg/kg/d i.v. 4 days).
